Results on ten molecules are retold here after patent US4975437A, “Isomers of 1-azabicyclo(2.2.2)oct-3-yl 1,4-dihydro-2,6-dimethyl-4-(3-nitrophenyl)-5-nitropyridine-3-carboxylate” (Marion Laboratories, Inc., priority 1989, dated 1990).

Test [1] deals with isolated guinea pig atrium. The note with it: cited from earlier work.
The test system of test [2] is isolated rabbit aortic strips. Conditions: cited from earlier work.
In test [3] the test system is voltage sensitive calcium channels. As to the kind of experiment: Potentiation of Calcium Influx across the Membrane (Quin 2 fluorescence). It counts as cell-based, murine. The note with it: NG108-15 (NGI08-15 [sic]) cells, KCl 50 mM depolarization, 37° C, percent enhancement over potassium chloride stimulation. As for the experimental part:
This test system was developed to evaluate the relative ability of compounds to potentiate calcium influx into cells via voltage sensitive calcium channels. The technique employs a high calcium affinity fluorescent dye to monitor changes in intracellular free calcium concentrations. The cells are incubated with a protected non-fluorescent form of the calcium sensitive dye. This compound permeates the cell wall and enters the cell. There it is transformed by enzymes into the fluorescent dye Quin 2 which cannot leave the cell Quin 2 has a high affinity for calcium ions and when calcium is bound to the dye, the complex fluoresces, the intensity of the fluorescence being proportional to the concentration of calcium ions. Voltage sensitive calcium channels are activated by the addition of potassium chloride to the media and calcium ion influx occurs. The increase in fluorescence is measured, giving a relative measure of calcium influx, the control value. In a separate cuvette, both potassium chloride and the test compound are administered to the cells and the fluorescence measured. A calcium agonist should increase influx of calcium into the cells and therefore an increase in the fluorescence. The percent stimulation above control is obtained from the increase in fluorescence.
Differentiated murine neuronal (neuroblastoma x glioma) hybrid cells (NGI08-15) which contain an abundance of voltage dependant calcium channels were used as a source of tissue for testing these compounds.
Briefly, NGI08-15 cells were cultured in 10% CO2 at 37° C. in Dulbecco's modified Eagle's medium (DMEM) supplemented with glutamine (1.0 mM). fetal bovine serum (FBS; 10%). and hypoxanthine (100 μM), aminopterin (1.0 μM). and thymidine (20 μM). Differentiation was induced by treatment with dibutyl cyclic AMP (4 days, 1.0 mM) [L. Noronha-Blob, C. […] Dispersed cells (5×10^6 cells/mL) were incubated with quin 2 acetoxymethyl ester (quin 2-AM, the calcium specific dye) [100 μM. in dimethyl sulfoxide (DMSO)] for 60 minutes at 37° C. The control suspensions received only DMSO. Cells were then diluted in ice-cold media, centrifuged and washed twice (1,500×g, 3 minutes) in ice-cold HEPES buffer (composition: 130 mM NaCl, 5.0 mM KCl, 6.0 mM glucose, 1.0 mM MgCl2, 1.0 mM CaCl2, and 20 mM HEPES, pH 7 4).
The change in fluorescence was calculated from the difference between final and initial values. The results were expressed as a percent enhancement over potassium chloride stimulation (control).

Test [4] has as its system smooth muscle (longitudinal muscle of ileum). As to the kind of experiment: Enhancement of Calcium Ion Evoked Smooth Muscle Contractility (isolated ileum longitudinal muscle). The note with it: guinea pig ileum; for Concentration at Maximum Enhancement: concentration of compound that produced the maximum enhancement; for Maximum Enhancement (% maximum contraction): 6 min; for minimal effective concentration: lowest concentration that produced enhancement of calcium evoked contraction, 37° C, read-out: Threshold for Enhancement. From the text:
This test is a measure of the ability of test compounds to enhance muscle contraction caused by calcium ions. A sample of muscle was placed under tension in a device to measure its length and contracted by addition of potassium chloride (to activate the calcium channels) followed by addition of a calcium ion solution. The addition of a calcium agonist should cause the influx of additional calcium ions and thereby cause further contraction of the muscle. The lowest concentration of test compound necessary to evoke this additional contraction was measured, as were the maximum contraction obtained and the concentration at which it was reached
The ileum of male albino guinea pigs were cut into 3-4 cm segments. The longitudinal muscle, with myenteric plexus attached, was separated from the circular muscle. […] Each preparation was suspended under resting tension of 0.3 g. The tissues were switched to calcium free Tryodes solution for 24 minutes. with complete replacement of the solution every four minutes. Potassium chloride was then added to produce a bath concentration of […], and calcium solutions were cumulatively added to increase the bath calcium ion concentration to 0.2-8.0 mM. The tissues were re-equilibrated in normal Tyrodes and then calcium free Tyrodes. Enhancement of calcium evoked contractions in the presence of drug were determined by repeating the cumulative addition procedure after the tissues were exposed to the drug for six minutes. Responses were expressed relative to the maximum contraction elicited by calcium ion in the absence of the drug.

For test [5] the following is noted: in words; cited from earlier work.
Another test concerns rabbit aortic rings. Conditions: cited from earlier work.
In test [6] the test system is radioactive calcium uptake. Conditions: cited from earlier work.
For test [7], the system named is extracellular calcium ions. The note with it: in words, dose-dependent; cited from earlier work.
[8] abbreviates: increase above control as percent of maximum control calcium evoked contraction, 6 min drug exposure.

Structures are written as SMILES. Structures can show the parent of a compound that is named as a salt. Where two headings read alike, the source gives them in different places.

As to `CC1=C(C(=O)Nc2ccccc2)C(c2ccccc2Cl)C(C(=O)OCCc2ccccn2)=C(C)N1` (centres unmarked) [YC-170], the “inotropic effect in atrium” value in test [1] (isolated guinea pig atrium) was “positive inotropic effect”. For the same molecule, the “contractile tension in atrium” value in test [1] (partially depolarized with a low concentration of potassium) is “decrease in contractile tension”. In addition, the “contraction of aortic strips” value in test [2] (isolated rabbit aortic strips) is reported as “induced contraction”. The “relaxant effect on aorta” value in test [2] (precontracted by a high concentration of potassium) is “relaxant effect”.

On to `CC1=C(C(=O)OC2CN3CCC2CC3)C(c2cccc([N+](=O)[O-])c2)C([N+](=O)[O-])=C(C)N1` (single isomer, unassigned) [(+a, +b), (+a, +b)-1-Azabicyclo[2.2.2]oct-3-yl 1,4-Dihydro-2,6-dimethyl-4-(3-nitrophenyl)-5-nitropyridine-3-carboxylate fumarate], for which the “% Stimulation Above Control” value in test [3] is reported as 20%. Also, in test [4], the “Concentration at Maximum Enhancement” value was found to be 100 nM. Besides, the “Maximum Enhancement (% maximum contraction)” value in test [4] (setting [8]) turned out to be 11%. Besides, the minimal effective concentration in test [4] (6 min drug exposure) came to 10 nM.

Broadly, the Emax is the size of the effect at its maximum, as opposed to the concentration needed. Consider `COC(=O)C1=C(C)NC(C)=C([N+](=O)[O-])C1c1ccccc1C(F)(F)F` (centres unmarked) [BAY K 8644, Methyl 1,4-dihydro-2,6-dimethyl-5-nitro-4-(2-trifluoromethylphenyl)-3-pyridine carboxylate], for which the “% Stimulation Above Control” value in test [3] came to 38%. The Emax in test [4] (Cavia porcellus, 0.1 h, increase above control as percent of maximum control calcium evoked contraction, 6 min drug exposure) came to 38%. The minimal effective concentration in test [4] (Cavia porcellus, 0.1 h, 6 min drug exposure) came to 10 nM. The “Concentration at Maximum Enhancement” value in test [4] turned out to be 100 nM. The inotropic effect entry in test [5] is “potent positive inotropic effects”.

As to `CC1=C(C(=O)OC2CN3CCC2CC3)C(c2cccc([N+](=O)[O-])c2)C([N+](=O)[O-])=C(C)N1` (single isomer, unassigned) [(+a, -b), (+a, -b)-1-Azabicyclo[2.2.2]oct-3-yl 1,4-Dihydro-2,6-dimethyl-4-(3-nitrophenyl)-5-nitropyridine-3-carboxylate fumarate], the “% Stimulation Above Control” value in test [3] came to 31%. For the same molecule, in test [4], the “Concentration at Maximum Enhancement” value was 10 nM. Further, in test [4] (setting [8]), the “Maximum Enhancement (% maximum contraction)” value turned out to be 15%. Also, in test [4] (6 min drug exposure), the minimal effective concentration was determined as 10 nM.

With `CC1=C(C(=O)OC(C)C)[C@@H](c2cccc3nonc23)C([N+](=O)[O-])=C(C)N1` [R enantiomer], in the test on rabbit aortic rings (single enantiomer, in words), the contraction entry was “inhibited contraction” and the stimulant activity result is given as “no stimulant activity”. Moreover, the radioactive calcium uptake result in test [6] (single enantiomer, in words) is “inhibited contraction and radioactive calcium uptake”.

Turning to `CC1=C(C(=O)OC(C)C)C(c2cccc3nonc23)C([N+](=O)[O-])=C(C)N1` (racemic) [Example 202-792, 2-propyl 4-(4-benzofurazanyl)-1,4-dihydro-2,6-dimethyl-5-nitropyridine-3-carboxylate], the “contraction of aortic rings” value with rabbit aortic rings (high levels of depolarization) is recorded as “inhibited contraction”; in the test on rabbit aortic rings (low levels of depolarization), “enhanced contractions of rabbit aortic rings at low levels of depolarization”. In test [6] (high levels of depolarization), the radioactive calcium uptake result is “inhibited contraction and radioactive calcium uptake at high levels of depolarization”.

As to `CC1=C(C(=O)OC2CN3CCC2CC3)C(c2cccc([N+](=O)[O-])c2)C([N+](=O)[O-])=C(C)N1` (single isomer, unassigned) [(-a, +b), (-a, +b)-1-Azabicyclo[2.2.2]oct-yl 1.4-Dihydro-2,6-dimethyl-4-(3-nitrophenyl)-5-nitropyridine-3-carboxylate fumarate], in test [3], the “% Stimulation Above Control” value is recorded as 25%. Moreover, the “Concentration at Maximum Enhancement” value in test [4] turned out to be 1000 nM. In test [4] (setting [8]), the “Maximum Enhancement (% maximum contraction)” value is 13%. The minimal effective concentration in test [4] (6 min drug exposure) came to 100 nM.

With `CC1=C(C(=O)OC2CN3CCC2CC3)C(c2cccc([N+](=O)[O-])c2)C([N+](=O)[O-])=C(C)N1` (single isomer, unassigned) [(-a, -b), (-a, -b)-1-Azabicyclo[2.2.2]oct-3-yl 1,4-Dihydro-2,6-dimethyl-4-(3-nitrophenyl)-5-nitropyridine-3-carboxylate fumarate], the “% Stimulation Above Control” value in test [3] was 10%. In addition, in test [4], the “Concentration at Maximum Enhancement” value turned out to be 10 nM. Also, in test [4] (setting [8]), the “Maximum Enhancement (% maximum contraction)” value is on record as 18%. The minimal effective concentration in test [4] (6 min drug exposure) amounted to 10 nM.

With `CCOC(=O)C1=C(C)NC2=C(C(=O)OC2)C1c1ccccc1OC(F)F` (centres unmarked) [CGP 28392, ethyl 4-[2-(difluoromethoxy)phenyl]-1,4,5,7-tetrahydro-2-methyl-5-oxofuro[3,4-b]pyridine-3-carboxylate], the “concentration of extracellular calcium ions” value in test [7] is on record as “increase in a dose-dependent manner the concentration of extracellular calcium ions”.

With `CC1=C(C(=O)OC(C)C)[C@H](c2cccc3nonc23)C([N+](=O)[O-])=C(C)N1` [S enantiomer], in the test on rabbit aortic rings (single enantiomer, in words), the “concentration-response curve for depolarization-induced contraction” value is “shifted the concentration-response curve for depolarization-induced contraction in an almost parallel fashion to the left” and the contraction entry is “enhanced contraction”. Also, the radioactive calcium uptake result in test [6] (single enantiomer, in words) is “enhanced radioactive calcium uptake dependently at all levels of depolarization”.
